Results from patent US6221865A, “Inhibitors of protein isoprenyl transferases” (priority 1998, dated 2001).
Where a name gives a salt, the structure may show the parent alone. Blank lines part the entries; values can stand above or below the compound they belong to.

Target: T1, protein farnesyltransferase (Rattus norvegicus, UniProt Q02293+Q04631)
T1 construct: The enzyme is purified according to Reiss, Y., et al., Cell, 62: 81-88 (1990), utilizing steps one through three; from tissue; host or cells: rat brain
T1 sequence (Q02293 whole entry, one chain of several): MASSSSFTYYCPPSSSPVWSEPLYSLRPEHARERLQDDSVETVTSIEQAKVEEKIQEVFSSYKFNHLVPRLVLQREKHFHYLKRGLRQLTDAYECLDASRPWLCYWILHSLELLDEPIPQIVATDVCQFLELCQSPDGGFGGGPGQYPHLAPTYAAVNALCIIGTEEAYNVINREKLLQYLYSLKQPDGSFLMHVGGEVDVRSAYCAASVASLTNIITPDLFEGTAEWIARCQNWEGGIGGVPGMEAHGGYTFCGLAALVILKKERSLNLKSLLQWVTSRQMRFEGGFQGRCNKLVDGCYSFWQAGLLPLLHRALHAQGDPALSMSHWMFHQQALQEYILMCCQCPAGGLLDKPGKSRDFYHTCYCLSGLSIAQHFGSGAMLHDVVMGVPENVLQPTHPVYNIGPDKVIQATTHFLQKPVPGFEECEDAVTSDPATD
Assay: Inhibition of farnesyltransferase (scintillation proximity assay, rat brain enzyme, biotin-K Ras B fragment substrate)
Format: biochemical
Conditions: for inhibition at 0.1 µM: read-out: % inhibition of farnesyltransferase at 1 × 10^-7 M; for inhibition at 0.1 µM / % inhibition of farnesyltransferase at 1 × 10^-7 M: 1 × 10^-7 M (Table 3); for % inhibition of farnesyltransferase at 1 × 10^-8 M: 1 × 10^-8 M (Table 4); for % inhibition of farnesyltransferase at 1 × 10^-5 M: 1 × 10^-5 M (Table 1); for % inhibition of farnesyltransferase at 1 × 10^-6 M / inhibition at 1 µM: 1 × 10^-6 M (Table 2); for inhibition at 1 µM: read-out: % inhibition of farnesyltransferase at 1 × 10^-6 M
Excerpt: The ability of the compounds of the invention to inhibit protein farnesyltransferase or protein geranylgeranyltransferase can be measured according to the method of Moores, et al., J. Biol. Chem. 266: 14603 (1991) or the method of Vogt, et al., J. Biol. Chem. 270:660-664 (1995). In addition, procedures for determination of the inhibition of farnesylation of the oncogene protein Ras are described by Goldstein, et al., J. Biol. Chem., 266:15575-15578 (1991) and by Singh in U.S. Pat. No. 5,245,061.
In addition, in vitro inhibition of protein farnesyltransferase may be measured by the following procedure. Rat brain protein farnesyltransferase activity is measured using an Amersham Life Science commercial scintillation proximity assay kit and substituting a biotin-K Ras B fragment (biotin-[…]Ble-Met-CO2 H), […] final concentration, for the biotin-lamin substrate provided by Amersham. The enzyme is purified according to Reiss, Y., et al., Cell, 62: 81-88 (1990), utilizing steps one through three.
The % inhibition of protein farnesyltransferase was determined for representative compounds of the invention.

Structure (SMILES): CSCC[C@H](NC(=O)c1ccc(C#Cc2cncnc2)cc1-c1ccccc1C)C(=O)O [Example 493, N-[4-(2-pyrimidin-5-ylethynyl)-2-(2-methylphenyl)benzoyl]methionine lithium salt]
- inhibition at 0.1 µM: 51%

- inhibition at 0.1 µM: 78%
Structure (SMILES): CSCC[C@H](NC(=O)c1ccc(/C=C/c2ccc(Oc3ccccc3Cl)cc2)cc1-c1ccccc1C)C(=O)O [Example 854, N-[4-(2-(4-(2-chlorophenoxy)phenyl)ethen-1-yl)-2-(2-methylphenyl)benzovyl]methionine]

- % inhibition of farnesyltransferase at 1 × 10^-7 M: 95%
Structure (SMILES): CSCC[C@H](NC(=O)c1ccc(COCc2cnc(-c3ccc(F)cc3)s2)cc1-c1ccccc1C)C(=O)O [Example 900]

- % inhibition of farnesyltransferase at 1 × 10^-7 M: 90%
Structure (SMILES): CSCC[C@H](NC(=O)c1ccc(CN(c2ccccc2)S(=O)(=O)c2ccccc2)cc1-c1ccccc1C)C(=O)O [Example 769]

- % inhibition of farnesyltransferase at 1 × 10^-8 M: 79%
Structure (SMILES): CSCC[C@H](NC(=O)c1ccc(CO[C@H](CSC)CC2CCCCC2)cc1-c1ccccc1C)C(=O)O [Example 882]

- % inhibition of farnesyltransferase at 1 × 10^-8 M: 95%
Structure (SMILES): CSCC[C@H](NC(=O)c1ccc(CN(CCC2CCCCC2)C2CC2)cc1-c1ccccc1C)C(=O)O [Example 880]

- % inhibition of farnesyltransferase at 1 × 10^-5 M: 47%
Structure (SMILES): COc1cc(I)c(C(=O)Nc2ccc(C(=O)N[C@@H](CCSC)C(=O)O)c(-c3ccccc3)c2)cc1OC [Example 756]

- % inhibition of farnesyltransferase at 1 × 10^-8 M: 90%
Structure (SMILES): CSCC[C@H](NC(=O)c1ccc(CSCc2ccccc2)cc1-c1ccccc1C)C(=O)NS(=O)(=O)c1ccc(C)cc1 [Example 586]

- % inhibition of farnesyltransferase at 1 × 10^-6 M: 24%
Structure (SMILES): CSCC[C@H](NC(=O)c1ccc(COCC2CCOC2)cc1-c1ccccc1)C(=O)O (stereo partly shown) [Example 287]

- % inhibition of farnesyltransferase at 1 × 10^-5 M: 48%
Structure (SMILES): CSCC[C@H](NC(=O)c1ccc(CNc2cccc(Oc3ccccc3)c2)cc1-c1ccccc1)C(=O)O [Example 686]

Structure (SMILES): CSCC[C@H](NC(=O)c1ccc(CN2CCN(C(=O)OC(C)(C)C)CC2)cc1-c1ccccc1C)C(=O)O [Example 866, N-[4-(4-t-butoxycarbonylpiperazin-1-ylmethyl)-2-(2-methylphenyl)benzoyl]methionine]
- inhibition at 1 µM: 62%

- inhibition at 1 µM: 97%
Structure (SMILES): Cc1ccccc1-c1cc(CN(C)C(C)(C)CC2CCCCC2)ccc1C(=O)N[C@@H](CCS(C)(=O)=O)C(=O)O [Example 314]

- % inhibition of farnesyltransferase at 1 × 10^-5 M: 56%
Structure (SMILES): CSCC[C@H](NC(=O)c1ccc(CNC(CO)Cc2ccccc2)cc1-c1ccccc1)C(=O)O (stereo partly shown) [Example 714]

Structure (SMILES): CSCC[C@H](NC(=O)c1ccc(CN(Cc2ccccc2)c2ccccc2[N+](=O)[O-])cc1-c1ccccc1C)C(=O)[O-].[Li+] [Example 849]
- % inhibition of farnesyltransferase at 1 × 10^-7 M: 66%

- % inhibition of farnesyltransferase at 1 × 10^-6 M: 81%
Structure (SMILES): CSCC[C@H](NC(=O)c1ccc(CNc2ccc(S(=O)(=O)Nc3onc(C)c3C)cc2)cc1-c1ccccc1C)C(=O)O [Example 726]

Structure (SMILES): CSCC[C@H](NC(=O)c1ccc(COCCc2ccccc2Cl)cc1-c1ccccc1C)C(=O)[O-].[Li+] [Example 588]
- % inhibition of farnesyltransferase at 1 × 10^-8 M: 68%

- % inhibition of farnesyltransferase at 1 × 10^-6 M: 42%
Structure (SMILES): CSCC[C@H](NC(=O)c1ccc(CN(C(=O)c2ccccc2)C(CC2CCCCC2)CC2CCCCC2)cc1-c1ccccc1C)C(=O)O [Example 910]

Structure (SMILES): CSCC[C@H](NC(=O)c1ccc(COCc2cnc(-c3cccc(Cl)c3)s2)cc1-c1ccccc1C)C(=O)[O-].[Li+] [Example 899]
- % inhibition of farnesyltransferase at 1 × 10^-8 M: 88%

- % inhibition of farnesyltransferase at 1 × 10^-6 M: 40%
Structure (SMILES): CSCC[C@H](NC(=O)c1ccc(NC(=O)Cc2ccccc2)cc1-c1ccccc1C)C(=O)O [Example 540]

- % inhibition of farnesyltransferase at 1 × 10^-5 M: 79%
Structure (SMILES): CSCC[C@H](NC(=O)c1ccc(CNc2ccc(C(=O)c3ccccc3)cc2)cc1-c1ccccc1)C(=O)O [Example 702]

- % inhibition of farnesyltransferase at 1 × 10^-7 M: 63%
Structure (SMILES): COc1ccccc1N(Cc1ccccc1)Cc1ccc(C(=O)N[C@@H](CCSC)C(=O)O)c(-c2ccccc2C)c1 [Example 839]

- % inhibition of farnesyltransferase at 1 × 10^-6 M: 32%
Structure (SMILES): CSCCC(NC(=O)c1ccc(CNC(CO)c2ccccc2)cc1-c1ccccc1)C(=O)O (stereo not shown) [Example 657]

- % inhibition of farnesyltransferase at 1 × 10^-8 M: 71%
Structure (SMILES): CSCC[C@H](NC(=O)c1ccc(CN(c2ccccc2)S(=O)(=O)c2ccc(C(F)(F)F)cc2)cc1-c1ccccc1C)C(=O)O [Example 780]

- % inhibition of farnesyltransferase at 1 × 10^-5 M: 79%
Structure (SMILES): CSCC[C@H](NC(=O)c1ccc(CNc2cc(C(C)(C)C)[nH]n2)cc1-c1ccccc1)C(=O)O [Example 381]

- % inhibition of farnesyltransferase at 1 × 10^-8 M: 87%
Structure (SMILES): CSCC[C@H](NC(=O)c1ccc(CN(Cc2ccccc2)c2ccc(Cl)cc2)cc1-c1ccccc1C)C(=O)O [Example 848]

- % inhibition of farnesyltransferase at 1 × 10^-5 M: 55%
Structure (SMILES): CSCC[C@H](NC(=O)c1ccc(CNc2cc(C)cc(C)c2)cc1-c1ccccc1)C(=O)O [Example 709]

- % inhibition of farnesyltransferase at 1 × 10^-6 M: 97%
Structure (SMILES): CSCC[C@H](NC(=O)c1ccc(OC/C=C(\C)CCC=C(C)C)cc1-c1ccccc1C)C(=O)O [Example 546]

- % inhibition of farnesyltransferase at 1 × 10^-6 M: 68%
Structure (SMILES): CSCC[C@H](NC(=O)c1ccc(CNC(CO)Cc2ccc(Cl)cc2)cc1-c1ccccc1)C(=O)O (stereo partly shown) [Example 662]

- % inhibition of farnesyltransferase at 1 × 10^-8 M: 91%
Structure (SMILES): CSCC[C@H](NC(=O)c1ccc(CN(C)CCC2CCCCC2)cc1-c1ccccc1C)C(=O)[O-].[Li+] [Example 608]

Structure (SMILES): CSCC[C@H](NC(=O)c1ccc(COCc2ccc(-c3ccc(F)cc3)o2)cc1-c1cccc2ccccc12)C(=O)[O-].[Li+] [Example 868]
- % inhibition of farnesyltransferase at 1 × 10^-6 M: 89%

Structure (SMILES): CSCC[C@H](NC(=O)c1ccc(COCc2occc2-c2ccc(Cl)cc2)cc1-c1ccccc1C)C(=O)[O-].[Li+] [Example 827]
- % inhibition of farnesyltransferase at 1 × 10^-8 M: 77%

- % inhibition of farnesyltransferase at 1 × 10^-5 M: 57%
Structure (SMILES): CSCC[C@H](NC(=O)c1ccc(CNc2cccc(N(C)C)c2)cc1-c1ccccc1)C(=O)O [Example 683]

- % inhibition of farnesyltransferase at 1 × 10^-6 M: 26%
Structure (SMILES): CSCC[C@H](NC(=O)c1ccc(NC(=O)OCCCl)cc1-c1ccccc1)C(=O)O [Example 979]

- % inhibition of farnesyltransferase at 1 × 10^-5 M: 71%
Structure (SMILES): CSCC[C@H](NC(=O)c1ccc(CNc2ccc(I)cc2)cc1-c1ccccc1)C(=O)O [Example 688]

- % inhibition of farnesyltransferase at 1 × 10^-6 M: 32%
Structure (SMILES): CSCC[C@H](NC(=O)c1ccc(NC(=O)C[C@H]2C[C@@H](C(C)=O)C2(C)C)cc1-c1ccccc1)C(=O)O [Example 751]

- % inhibition of farnesyltransferase at 1 × 10^-6 M: 95%
Structure (SMILES): CSCC[C@H](NC(=O)c1ccc(CN(Cc2cncs2)S(C)(=O)=O)cc1-c1ccccc1C)C(=O)O [Example 878]

- % inhibition of farnesyltransferase at 1 × 10^-8 M: 84%
Structure (SMILES): CCCCN(CCc1ccccc1)Cc1ccc(C(=O)N[C@@H](CCSC)C(=O)O)c(-c2ccccc2C)c1 [Example 928]

- % inhibition of farnesyltransferase at 1 × 10^-7 M: 84%
Structure (SMILES): CSCC[C@H](NC(=O)c1ccc(CNc2ccc(Oc3ccccc3)cc2)cc1-c1ccccc1C)C(=O)O [Example 864]

- % inhibition of farnesyltransferase at 1 × 10^-6 M: 77%
Structure (SMILES): CSCC[C@H](NC(=O)c1cc(Cc2ccccc2)c(COCc2ccco2)cc1-c1ccccc1C)C(=O)O [Example 924]

- inhibition at 1 µM: 98%
Structure (SMILES): Cc1ccccc1-c1cc(CN(C2CC2)C2(CC3CCCCC3)CCCC2)ccc1C(=O)N[C@@H](CCS(C)(=O)=O)C(=O)O [Example 346]

- % inhibition of farnesyltransferase at 1 × 10^-6 M: 94%
Structure (SMILES): CSCC[C@H](NC(=O)c1ccc(COCc2ccoc2)cc1-c1ccccc1C)C(=O)O [Example 530]

- % inhibition of farnesyltransferase at 1 × 10^-5 M: 48%
Structure (SMILES): CSCC[C@H](NC(=O)c1ccc(CNc2cccc(CC(=O)O)c2)cc1-c1ccccc1)C(=O)O [Example 684]

- inhibition at 1 µM: 98%
Structure (SMILES): CSCC[C@H](NC(=O)c1ccc(CN(C2CC2)C2(Cc3ccccc3)CC2)cc1-c1ccccc1C)C(=O)O [Example 323]

- % inhibition of farnesyltransferase at 1 × 10^-6 M: 95%
Structure (SMILES): CSCC[C@H](NC(=O)c1ccc(CN[C@H](CO)Cc2ccccc2)cc1-c1ccccc1C)C(=O)O [Example 727]

Structure (SMILES): CSCC[C@H](NC(=O)c1ccc(COCc2cc(-c3ccc(Cl)cc3)co2)cc1-c1ccccc1C)C(=O)[O-].[Li+] [Example 904]
- % inhibition of farnesyltransferase at 1 × 10^-8 M: 85%

- % inhibition of farnesyltransferase at 1 × 10^-8 M: 80%
Structure (SMILES): CCCCS(=O)(=O)N(Cc1ccc(C(=O)N[C@@H](CCSC)C(=O)O)c(-c2ccccc2C)c1)CC1CCCCC1 [Example 996]

- inhibition at 1 µM: 98%
Structure (SMILES): CSCC[C@H](NC(=O)c1ccc(CN(C(C)C)C2(Cc3ccccc3)CCC2)cc1-c1ccccc1C)C(=O)O [Example 331]

Structure (SMILES): CSCC[C@H](NC(=O)c1ccc(COCCc2ccco2)cc1-c1ccccc1C)C(=O)[O-].[Li+] [Example 531]
- % inhibition of farnesyltransferase at 1 × 10^-7 M: 74%

- % inhibition of farnesyltransferase at 1 × 10^-6 M: 95%
Structure (SMILES): CSCC[C@H](NC(=O)c1ccc(COCC(CC2CCCCC2)CC2CCCCC2)cc1-c1ccccc1C)C(=O)O [Example 889]

Structure (SMILES): CSCC[C@H](NC(=O)c1ccc(COc2ccc(Oc3ccccc3)cc2)cc1-c1ccccc1C)C(=O)[O-].[Li+] [Example 795]
- % inhibition of farnesyltransferase at 1 × 10^-7 M: 87%

- % inhibition of farnesyltransferase at 1 × 10^-5 M: 45%
Structure (SMILES): CSCC[C@H](NC(=O)c1ccc(CNc2cc(C(=O)O)cc(C(=O)O)c2)cc1-c1ccccc1)C(=O)O [Example 710]

- inhibition at 1 µM: 98%
Structure (SMILES): CSCC[C@H](NC(=O)c1ccc(CCCCC2CCCCC2)cc1-c1ccccc1C)C(=O)O [Example 478, N-[4-(4-cyclohexylbutyl)-2-(2-methyphenyl)benzoyl]methionine sodium salt]
